Measured values published in patent US20090253709A1 (NATIONAL DEFENSE MEDICAL CENTER, priority 2008, published 2009).

Legend:
MTT assay in H1299 cells = type: cell-based; conditions: human, H1299 cells (H1299/PhTERT-driven SEAP reporter system), H1299, read-out: MTT (Inhibition μM ± SD); for viability at 24 h, 1 µM: compound concentration 1 μM; for viability at 24 h, 10 µM: compound concentration 10 μM; for viability at 24 h, 100 µM: compound concentration 100 μM
Description: (§1) H1299 is a non-small cell lung cancer cell line with telomerase activity. The cell extract of H1299 cell lines can be used for selecting the telomerase activity inhibitors in vitro and the telomerase activity-inhibited substances in vivo. H1299 cell line was incubated with RPMI 1640 medium supplemented with 10% of fetal bovine serum (FBS). A total of 2×10^3 […] cells were seeded in the 96-well cell culture plate, and incubated with DMEM (GIBCO®)/glucose mixture and Medium 199 (GIBCO®)/10% FBS/1 mM sodium pyruvate (GIBCO®)/4 mM L-glutamine (GIBCO®) mixture at a ratio of 4:1 at 37° C. for 24 hours. […] After 48 hours of drug treatment, the cultured medium were collected for performing the analysis of SEAP activity. The cells were washed with 1×PBS once immediately, and the MTT assay was performed to compare the compounds with the relative toxicity or the influence to the proliferation and activity. Mitochondria is the place for cellular respiration, and there are many reductive reactions catalyzed by dehydrogenases. MTT is a water-soluble yellow compound, and the […] will be formed after reduction. This crystal can be dissolved in the organic solvent, and has high absorbance at the wavelength of 570 nm. The higher cellular activity or more cell numbers, the more generated crystal violets. Therefore, the cellular activity and cell number can be obtained by the MTT assay. MTT solution was prepared by dissolving MTT powder in PBS solution to achieve 5 mg/ml, filtrated and stored at 4° C. Lysis buffer contained 20% (w/v) of SDS in 50% of N,N-dimethylformamide (DMF, Riedel-deHaën). After the cells were incubated in the 96-well culture plate, the original medium was discarded, 100 μl of the fresh serum-free medium per well and 25 μl of MTT solution per well were added in respectively, and the cells were further incubated in the CO2 incubator at 37° C. for 4 hours. Then, 100 μl of lysis buffer per well was added in and incubated overnight in the CO2 incubator at 37° C. The absorbance at 570 nm was determined by the ELISA reader. The selection of telomerase inhibitors of the anthraquinone compounds provided in the present invention was performed by the […]-driven SEAP system. SEAP is the communication gene in this drug selection model. The SEAP inhibition was shown as follows. […] Subsequently, the linear slope of absorbance to the measuring time was calculated, and the variance of absorbance at 405 nm per minute was represented and compared with the SEAP-producing result of drug-untreated H1299 cells. In addition, the influence of the cell-treated drug solution to the cellular proliferation and the drug toxicity to the cells were considered, and the cellular growth was evaluated by the MTT assay. The drug-treated cells were analyzed by the SEAP assay and the data analysis of MTT assay at the same time. Both results were compared so as to delete the influence of cell number or the activity to SEAP, and the dose-dependent phenomenon could be anticipated in the range of drug concentration designed by the laboratory. […] Since the chemically-synthetic drugs have colors thereon, the SEAP value of drug-treatment without cells was also determined to be the background value which was deducted while treating with the drugs. The candidate drug for inhibiting telomerase on the hTERT gene expression level was evaluated and anticipated.

MTT assay in BJ1 cells = type: cell-based; conditions: human, hTERT-BJ1-PTERT(3.4)-SEAP cells, BJ1, read-out: MTT (Inhibition μM ± SD); for viability at 48 h, 1 µM: compound concentration 1 μM; for viability at 48 h, 10 µM: compound concentration 10 μM; for viability at 48 h, 100 µM: compound concentration 100 μM
Description: A total of 2×10^3 […] cells were seeded in the 96-well cell culture plate, and incubated with DMEM (GIBCO®)/glucose mixture and Medium 199 (GIBCO®)/10% FBS/1 mM sodium pyruvate (GIBCO®)/4 mM L-glutamine (GIBCO®) mixture at a ratio of 4:1 at 37° C. for 24 hours. […] After 48 hours of drug treatment, the cultured medium were collected for performing the analysis of SEAP activity. The cells were washed with 1×PBS once immediately, and the MTT assay was performed to compare the compounds with the relative toxicity or the influence to the proliferation and activity. Mitochondria is the place for cellular respiration, and there are many reductive reactions catalyzed by dehydrogenases. MTT is a water-soluble yellow compound, and the […] will be formed after reduction. This crystal can be dissolved in the organic solvent, and has high absorbance at the wavelength of 570 nm. The higher cellular activity or more cell numbers, the more generated crystal violets. Therefore, the cellular activity and cell number can be obtained by the MTT assay. MTT solution was prepared by dissolving MTT powder in PBS solution to achieve 5 mg/ml, filtrated and stored at 4° C. Lysis buffer contained 20% (w/v) of SDS in 50% of N,N-dimethylformamide (DMF, Riedel-deHaën). After the cells were incubated in the 96-well culture plate, the original medium was discarded, 100 μl of the fresh serum-free medium per well and 25 μl of MTT solution per well were added in respectively, and the cells were further incubated in the CO2 incubator at 37° C. for 4 hours. Then, 100 μl of lysis buffer per well was added in and incubated overnight in the CO2 incubator at 37° C. The absorbance at 570 nm was determined by the ELISA reader.

telomerase = experiment: Telomeric repeat amplification protocol (TRAP); type: biochemical; conditions: compounds at 100, 10 and 1 μM; gel electrophoresis
H1299 = experiment: MTT assay in H1299 cells; type: cell-based; conditions: for cytotoxicity to H1299 cancer cells compared with mitoxantrone: MTT assay
Description: as §1

[1] = test system: different cancer cell lines; experiment: In vitro cytotoxicity, Development Therapeutics Program, summary over all cell lines; type: cell-based; conditions: 1.0×10^−5 M
Text: (§2) From the in vitro experiments of the Development Therapeutics Program of the Cancer Research Institute, the United States, it was known that the synthetic heterocyclic anthraquinone derivatives of the present invention have different inhibition levels to the different cancer cell lines under the concentration of 1.0×10^−5 M. Please refer to Table 2, which is the result of in vitro cytotoxicity of 2,7-disubstituted anthraquinone derivatives of the present invention.

SK-MEL-28 = experiment: In vitro cytotoxicity, Development Therapeutics Program; type: cell-based; conditions: SK-MEL-28, melanoma; 1.0×10^−5 M
Text: as §2

SF-295 = experiment: as above; type: cell-based; conditions: SF-295, CNS cancer; 1.0×10^−5 M
Text: as §2

SW-620 = experiment: as above; type: cell-based; conditions: SW-620, colon cancer; 1.0×10^−5 M
Text: as §2

KM12 = experiment: as above; type: cell-based; conditions: KM12, colon cancer; 1.0×10^−5 M
Text: as §2

NCl-H322M = experiment: as above; type: cell-based; conditions: non-small cell lung cancer, 1.0×10^−5 M
Text: as §2

HCC-2998 = experiment: as above; type: cell-based; conditions: HCC-2998, colon cancer; 1.0×10^−5 M
Text: as §2

SMILES	viability at 24 h, 1 µM (MTT assay in H1299 cells)	viability at 24 h, 10 µM (MTT assay in H1299 cells)	viability at 24 h, 100 µM (MTT assay in H1299 cells)	viability at 48 h, 1 µM (MTT assay in BJ1 cells)	viability at 48 h, 10 µM (MTT assay in BJ1 cells)	viability at 48 h, 100 µM (MTT assay in BJ1 cells)	telomerase inhibition effect in TRAP assay (telomerase)	cytotoxicity to H1299 cancer cells compared with mitoxantrone (H1299)	Cellular growth rate (%), Mean [1]	Cellular growth rate (%) (SK-MEL-28)	Cellular growth rate (%) (SF-295)	Cellular growth rate (%) (SW-620)	Cellular growth rate (%) (KM12)	Cellular growth rate (%) (NCl-H322M)	Cellular growth rate (%) (HCC-2998)	MTT assay (cellular cytotoxicity) (H1299; low concentration (1 μM))
O=C(CN1CCCC1)Nc1ccc2c(c1)C(=O)c1cc(NC(=O)CN3CCCC3)ccc1C2=O [Compound 6, 2,7-Bis[2-(pyrrolidino)acetamido]anthraquinone]	99 ± 9%	52 ± 13%	23 ± 14%	99 ± 2%	60 ± 2%	39 ± 1%	telomerase inhibition effect									
O=C(CN1CCCCC1)Nc1ccc2c(c1)C(=O)c1cc(NC(=O)CN3CCCCC3)ccc1C2=O [Compound 7, 2,7-Bis[2-(piperidino)acetamido]anthraquinone]	50 ± 16%	37 ± 15%	35 ± 11%	89 ± 1%	78 ± 3%	22 ± 2%		better than								
CCNCC(=O)Nc1ccc2c(c1)C(=O)c1cc(NC(=O)CNCC)ccc1C2=O [Compound 10, 2,7-Bis[2-(ethylamino)acetamido]anthraquinone]	52 ± 11%	24 ± 5%	3 ± 4%	72 ± 2%	56 ± 2%	37 ± 1%	telomerase inhibition effect	better than								
CC(C)NCC(=O)Nc1ccc2c(c1)C(=O)c1cc(NC(=O)CNC(C)C)ccc1C2=O [Compound 13, 2,7-Bis[2-(isopropylamino)acetamido]anthraquinone]	78 ± 10%	26 ± 15%	6 ± 11%	89 ± 1%	41 ± 2%	39 ± 1%	telomerase inhibition effect									
O=C(CCN1CCCC1)Nc1ccc2c(c1)C(=O)c1cc(NC(=O)CCN3CCCC3)ccc1C2=O [Compound 18, 2,7-Bis[3-(pyrrolidino)propionamido]anthraquinone]	87 ± 15%	54 ± 7%	12 ± 10%	82 ± 4%	68%	39%			30.97%	14.99%	48.62%	20.01%	32.55%	45.79%	19.99%	
CN(C)CCC(=O)Nc1ccc2c(c1)C(=O)c1cc(NC(=O)CCN(C)C)ccc1C2=O [Compound 20, 2,7-Bis[3-(dimethylamino)propionamido]anthraquinone]	1 ± 104%	53 ± 13%	1 ± 1%	94 ± 7%	30 ± 14%	22 ± 13%	telomerase inhibition effect									
CCC(=O)Nc1ccc2c(c1)C(=O)c1cc(NC(=O)CC)ccc1C2=O [Compound 27, 2,7-Bis(propionamido)anthraquinone]	70 ± 25%	38 ± 17%	35 ± 15%	77 ± 2%	57 ± 2%	48 ± 2%										
CCCC(=O)Nc1ccc2c(c1)C(=O)c1cc(NC(=O)CCC)ccc1C2=O [Compound 28, 2,7-Bis(butyramido)anthraquinone]	93 ± 14%	59 ± 13%	40 ± 15%	84 ± 2%	51 ± 8%	50 ± 6%	telomerase inhibition effect									
O=C(Nc1ccc2c(c1)C(=O)c1cc(NC(=O)c3ccccc3)ccc1C2=O)c1ccccc1 [Compound 29, 2,7-Bis(benzoamido)anthraquinone]	71 ± 24%	47 ± 13%	41 ± 30%	92 ± 2%	85 ± 2%	97 ± 3%	telomerase inhibition effect									
O=C(Cc1ccccc1)Nc1ccc2c(c1)C(=O)c1cc(NC(=O)Cc3ccccc3)ccc1C2=O [Compound 30, 2,7-Bis(phenylacetamido)anthraquinone]	106 ± 12%	96 ± 17%	75 ± 22%	93 ± 2%	80 ± 3%	86 ± 4%										107±7%
O=C(CCc1ccccc1)Nc1ccc2c(c1)C(=O)c1cc(NC(=O)CCc3ccccc3)ccc1C2=O [Compound 31, 2,7-Bis(phenylpropionamido)anthraquinone]	102 ± 11%	94 ± 13%	76 ± 18%	89 ± 2%	44%	44 ± 1%										
O=C1c2ccc(NC(=O)C3CCCCC3)cc2C(=O)c2cc(NC(=O)C3CCCCC3)ccc21 [Compound 34, 2,7-Bis(cyclohexanecarbonamido)anthraquinone]	90 ± 3%	63 ± 13%	52 ± 16%	87 ± 2%	76 ± 3%	64 ± 2%										
